Assay results from ChEMBL document CHEMBL4507269, “Data for DCP probe BAY-386” (2021).

What was measured:
[1] = target: T1, Alpha-1A adrenergic receptor (Homo sapiens) (UniProt P35348); experiment: alpha1A (h) Eurofins-Cerep Cellular and Nuclear Receptor Functional Assays; settings: Compound concentration 10.0 uM
T1 sequence (whole entry): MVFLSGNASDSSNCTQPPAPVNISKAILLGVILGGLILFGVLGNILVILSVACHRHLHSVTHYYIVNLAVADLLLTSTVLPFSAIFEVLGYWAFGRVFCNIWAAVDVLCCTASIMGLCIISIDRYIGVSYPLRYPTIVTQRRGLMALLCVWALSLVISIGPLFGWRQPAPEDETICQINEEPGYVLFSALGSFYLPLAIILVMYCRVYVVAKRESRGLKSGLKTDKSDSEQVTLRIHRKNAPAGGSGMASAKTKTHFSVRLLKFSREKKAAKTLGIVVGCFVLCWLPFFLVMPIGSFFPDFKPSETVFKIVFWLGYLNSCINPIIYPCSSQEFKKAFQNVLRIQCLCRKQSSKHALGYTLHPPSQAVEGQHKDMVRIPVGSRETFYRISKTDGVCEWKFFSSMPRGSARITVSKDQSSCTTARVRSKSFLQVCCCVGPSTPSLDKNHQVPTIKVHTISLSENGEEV

[2] = test system: Tyrosine-protein kinase ABL1 (Homo sapiens), P00519 [Q252H]; settings: Compound concentration 1000.0 nM
[3] = target: Atypical kinase COQ8A, mitochondrial (Homo sapiens) (UniProt Q8NI60); settings: Compound concentration 1000.0 nM
[4] = target: Atypical kinase COQ8B, mitochondrial (Homo sapiens) (UniProt Q96D53); settings: Compound concentration 1000.0 nM
[5] = target: Protein-tyrosine kinase 6 (Homo sapiens) (UniProt Q13882); settings: Compound concentration 1000.0 nM
[6] = target: Calcium/calmodulin-dependent protein kinase type II subunit beta (Homo sapiens) (UniProt Q13554); settings: Compound concentration 1000.0 nM
[7] = target: Cyclin-dependent kinase 11B (Homo sapiens) (UniProt P21127); settings: Compound concentration 1000.0 nM
[8] = target: Cyclin-dependent kinase 19 (Homo sapiens) (UniProt Q9BWU1); settings: Compound concentration 1000.0 nM
[9] = target: Cyclin-dependent kinase-like 2 (Homo sapiens) (UniProt Q92772); settings: Compound concentration 1000.0 nM
[10] = target: Dual specificity protein kinase CLK1 (Homo sapiens) (UniProt P49759); settings: Compound concentration 1000.0 nM
[11] = target: Casein kinase II subunit alpha' (Homo sapiens) (UniProt P19784); settings: Compound concentration 1000.0 nM
[12] = target: Discoidin domain-containing receptor 2 (Homo sapiens) (UniProt Q16832); settings: Compound concentration 1000.0 nM
[13] = target: Dual specificity tyrosine-phosphorylation-regulated kinase 2 (Homo sapiens) (UniProt Q92630); settings: Compound concentration 1000.0 nM
[14] = target: Epidermal growth factor receptor (Homo sapiens) (UniProt P00533); settings: Compound concentration 1000.0 nM
[15] = test system: Epidermal growth factor receptor (Homo sapiens), P00533 [UNDEFINED MUTATION]; settings: Compound concentration 1000.0 nM
[16] = target: Ephrin type-A receptor 1 (Homo sapiens) (UniProt P21709); settings: Compound concentration 1000.0 nM
[17] = test system: Receptor-type tyrosine-protein kinase FLT3 (Homo sapiens), P36888 [D835V]; settings: Compound concentration 1000.0 nM
[18] = target: Vascular endothelial growth factor receptor 3 (Homo sapiens) (UniProt P35916); settings: Compound concentration 1000.0 nM
[19] = test system: eIF-2-alpha kinase GCN2 (Homo sapiens), Q9P2K8 [S808G]; settings: Compound concentration 1000.0 nM
[20] = target: Homeodomain-interacting protein kinase 4 (Homo sapiens) (UniProt Q8NE63); settings: Compound concentration 1000.0 nM
[21] = target: Tyrosine-protein kinase JAK2 (Homo sapiens) (UniProt O60674); settings: Compound concentration 1000.0 nM
[22] = target: Mast/stem cell growth factor receptor Kit (Homo sapiens) (UniProt P10721); settings: Compound concentration 1000.0 nM
[23] = test system: Mast/stem cell growth factor receptor Kit (Homo sapiens), P10721 [A829P]; settings: Compound concentration 1000.0 nM
[24] = target: Serine/threonine-protein kinase LATS1 (Homo sapiens) (UniProt O95835); settings: Compound concentration 1000.0 nM
[25] = target: Tyrosine-protein kinase Lyn (Homo sapiens) (UniProt P07948); settings: Compound concentration 1000.0 nM
[26] = target: Serine/threonine-protein kinase MAK (Homo sapiens) (UniProt P20794); settings: Compound concentration 1000.0 nM
[27] = target: MAP kinase-activated protein kinase 2 (Homo sapiens) (UniProt P49137); settings: Compound concentration 1000.0 nM
[28] = target: MAP/microtubule affinity-regulating kinase 3 (Homo sapiens) (UniProt P27448); settings: Compound concentration 1000.0 nM
[29] = target: MAP kinase-interacting serine/threonine-protein kinase 2 (Homo sapiens) (UniProt Q9HBH9); settings: Compound concentration 1000.0 nM
[30] = target: Protein kinase C theta type (Homo sapiens) (UniProt Q04759); settings: Compound concentration 1000.0 nM
[31] = target: Serine/threonine-protein kinase SIK3 (Homo sapiens) (UniProt Q9Y2K2); settings: Compound concentration 1000.0 nM
[32] = test system: Proto-oncogene tyrosine-protein kinase receptor Ret (Homo sapiens), P07949 [V804L]; settings: Compound concentration 1000.0 nM
[33] = target: Proto-oncogene tyrosine-protein kinase ROS (Homo sapiens) (UniProt P08922); settings: Compound concentration 1000.0 nM
[34] = target: Ribosomal protein S6 kinase alpha-4 (Homo sapiens) (UniProt O75676); settings: Compound concentration 1000.0 nM
[35] = target: Proto-oncogene tyrosine-protein kinase Src (Homo sapiens) (UniProt P12931); settings: Compound concentration 1000.0 nM
[36] = target: D(3) dopamine receptor (Homo sapiens) (UniProt P35462); settings: Compound concentration 10.0 uM
[37] = target: GABA-A receptor; anion channel (Rattus norvegicus) (UniProt O09028+P15431+P18506+P18508+P19969+P20236+P23574+P23576+P28471+P28473+P30191+P62813+P63079+P63138+Q91ZM7+Q9ES14); settings: Compound concentration 10.0 uM

Sequence of Cyclin-dependent kinase 19 (Homo sapiens) (Q9BWU1 whole entry): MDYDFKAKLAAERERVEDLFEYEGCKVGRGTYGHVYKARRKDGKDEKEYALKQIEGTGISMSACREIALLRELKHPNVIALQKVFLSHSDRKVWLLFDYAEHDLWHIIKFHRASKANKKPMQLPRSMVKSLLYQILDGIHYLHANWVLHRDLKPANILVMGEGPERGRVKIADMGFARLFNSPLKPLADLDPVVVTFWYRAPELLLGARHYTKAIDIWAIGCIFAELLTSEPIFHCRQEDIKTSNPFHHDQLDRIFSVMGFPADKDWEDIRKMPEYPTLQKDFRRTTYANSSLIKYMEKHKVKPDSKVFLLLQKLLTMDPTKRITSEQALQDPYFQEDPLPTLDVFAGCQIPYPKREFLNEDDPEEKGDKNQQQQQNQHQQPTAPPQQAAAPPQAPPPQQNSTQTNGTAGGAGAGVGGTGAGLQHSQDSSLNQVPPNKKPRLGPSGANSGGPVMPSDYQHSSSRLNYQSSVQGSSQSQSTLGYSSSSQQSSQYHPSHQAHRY
Sequence of Mast/stem cell growth factor receptor Kit (Homo sapiens), P10721 [A829P] (P10721 whole entry A829P): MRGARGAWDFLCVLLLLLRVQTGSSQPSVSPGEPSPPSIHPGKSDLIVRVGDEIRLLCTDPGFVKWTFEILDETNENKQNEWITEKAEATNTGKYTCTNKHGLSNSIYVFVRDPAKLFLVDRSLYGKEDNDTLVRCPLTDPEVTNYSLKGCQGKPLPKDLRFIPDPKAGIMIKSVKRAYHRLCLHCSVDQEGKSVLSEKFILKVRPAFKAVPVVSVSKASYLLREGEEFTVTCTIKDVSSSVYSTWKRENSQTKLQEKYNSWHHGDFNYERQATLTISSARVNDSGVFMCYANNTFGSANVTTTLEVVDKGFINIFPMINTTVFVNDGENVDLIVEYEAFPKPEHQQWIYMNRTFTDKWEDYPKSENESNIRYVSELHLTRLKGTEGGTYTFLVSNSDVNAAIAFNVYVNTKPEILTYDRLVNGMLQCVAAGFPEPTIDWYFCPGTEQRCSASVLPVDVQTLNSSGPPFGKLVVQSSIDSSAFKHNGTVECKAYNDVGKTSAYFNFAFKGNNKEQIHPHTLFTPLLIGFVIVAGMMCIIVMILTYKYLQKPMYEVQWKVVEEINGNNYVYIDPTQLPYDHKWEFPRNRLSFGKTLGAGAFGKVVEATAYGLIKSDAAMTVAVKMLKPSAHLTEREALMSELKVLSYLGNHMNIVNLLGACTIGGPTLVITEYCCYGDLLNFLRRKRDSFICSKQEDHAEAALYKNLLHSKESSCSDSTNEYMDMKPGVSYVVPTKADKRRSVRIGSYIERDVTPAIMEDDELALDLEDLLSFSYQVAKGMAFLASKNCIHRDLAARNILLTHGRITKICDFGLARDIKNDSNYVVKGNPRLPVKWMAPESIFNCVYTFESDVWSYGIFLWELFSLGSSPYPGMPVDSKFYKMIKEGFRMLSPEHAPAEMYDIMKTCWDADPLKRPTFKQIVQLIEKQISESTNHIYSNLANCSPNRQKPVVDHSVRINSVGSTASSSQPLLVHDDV
Sequence of Cyclin-dependent kinase-like 2 (Homo sapiens) (Q92772 whole entry): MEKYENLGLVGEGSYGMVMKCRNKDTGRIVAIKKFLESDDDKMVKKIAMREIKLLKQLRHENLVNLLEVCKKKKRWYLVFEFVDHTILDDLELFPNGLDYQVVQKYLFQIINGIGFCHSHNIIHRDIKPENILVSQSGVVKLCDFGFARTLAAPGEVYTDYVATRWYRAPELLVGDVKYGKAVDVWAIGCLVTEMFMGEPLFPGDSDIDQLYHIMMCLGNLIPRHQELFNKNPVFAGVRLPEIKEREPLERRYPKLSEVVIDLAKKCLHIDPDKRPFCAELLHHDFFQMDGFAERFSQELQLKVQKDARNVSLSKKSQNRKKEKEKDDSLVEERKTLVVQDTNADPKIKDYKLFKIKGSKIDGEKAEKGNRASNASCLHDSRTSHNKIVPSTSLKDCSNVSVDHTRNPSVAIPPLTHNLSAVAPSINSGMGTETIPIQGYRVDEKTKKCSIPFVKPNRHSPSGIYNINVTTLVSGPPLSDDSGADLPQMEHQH
Sequence of Discoidin domain-containing receptor 2 (Homo sapiens) (Q16832 whole entry, the tested form may be a part): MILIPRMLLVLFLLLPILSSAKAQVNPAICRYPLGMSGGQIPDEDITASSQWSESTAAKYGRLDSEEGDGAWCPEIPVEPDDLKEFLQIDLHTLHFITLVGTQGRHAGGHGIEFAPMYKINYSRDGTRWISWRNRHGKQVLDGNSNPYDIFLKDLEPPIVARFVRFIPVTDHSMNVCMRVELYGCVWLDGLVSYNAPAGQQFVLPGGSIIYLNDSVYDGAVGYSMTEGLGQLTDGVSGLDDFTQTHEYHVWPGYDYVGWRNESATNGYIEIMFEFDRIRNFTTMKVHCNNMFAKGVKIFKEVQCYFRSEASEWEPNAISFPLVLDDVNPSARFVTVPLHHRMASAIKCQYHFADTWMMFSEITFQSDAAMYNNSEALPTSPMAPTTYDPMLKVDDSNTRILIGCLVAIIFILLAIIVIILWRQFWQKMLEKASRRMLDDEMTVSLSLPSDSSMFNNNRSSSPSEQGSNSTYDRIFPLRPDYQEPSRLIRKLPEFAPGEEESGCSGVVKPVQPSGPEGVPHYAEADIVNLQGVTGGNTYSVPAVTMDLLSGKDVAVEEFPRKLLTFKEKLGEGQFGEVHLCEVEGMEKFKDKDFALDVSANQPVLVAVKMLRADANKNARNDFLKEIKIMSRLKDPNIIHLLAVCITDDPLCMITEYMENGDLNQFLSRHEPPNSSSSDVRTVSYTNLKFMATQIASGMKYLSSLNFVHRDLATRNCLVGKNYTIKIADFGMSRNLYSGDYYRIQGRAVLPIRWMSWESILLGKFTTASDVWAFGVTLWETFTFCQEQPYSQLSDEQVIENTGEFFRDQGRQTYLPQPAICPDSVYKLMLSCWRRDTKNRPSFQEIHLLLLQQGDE
Sequence of Mast/stem cell growth factor receptor Kit (Homo sapiens) (P10721 whole entry): as the sequence (P10721 whole entry A829P) above, with P829A counted along it
Sequence of Ribosomal protein S6 kinase alpha-4 (Homo sapiens) (O75676 whole entry, looked up): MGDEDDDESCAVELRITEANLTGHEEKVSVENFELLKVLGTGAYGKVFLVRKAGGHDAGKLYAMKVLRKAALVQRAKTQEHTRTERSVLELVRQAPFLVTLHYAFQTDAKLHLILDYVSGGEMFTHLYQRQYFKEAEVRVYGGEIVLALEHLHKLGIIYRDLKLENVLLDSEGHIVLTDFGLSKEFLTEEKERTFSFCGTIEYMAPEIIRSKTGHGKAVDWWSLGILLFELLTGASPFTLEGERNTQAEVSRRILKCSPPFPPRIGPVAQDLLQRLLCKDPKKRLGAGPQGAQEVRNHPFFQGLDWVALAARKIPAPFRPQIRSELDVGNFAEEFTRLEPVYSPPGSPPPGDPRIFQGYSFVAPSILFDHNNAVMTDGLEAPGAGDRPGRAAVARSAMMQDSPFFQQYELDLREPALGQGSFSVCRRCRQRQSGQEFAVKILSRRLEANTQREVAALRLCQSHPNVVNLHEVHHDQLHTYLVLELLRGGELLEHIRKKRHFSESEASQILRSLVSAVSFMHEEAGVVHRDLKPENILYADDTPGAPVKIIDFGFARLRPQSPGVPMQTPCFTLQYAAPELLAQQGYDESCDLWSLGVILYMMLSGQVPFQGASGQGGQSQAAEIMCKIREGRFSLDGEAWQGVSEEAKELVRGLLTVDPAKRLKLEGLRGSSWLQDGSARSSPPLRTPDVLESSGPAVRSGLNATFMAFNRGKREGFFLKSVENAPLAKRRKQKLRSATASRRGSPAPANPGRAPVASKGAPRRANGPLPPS
Sequence of Calcium/calmodulin-dependent protein kinase type II subunit beta (Homo sapiens) (Q13554 whole entry): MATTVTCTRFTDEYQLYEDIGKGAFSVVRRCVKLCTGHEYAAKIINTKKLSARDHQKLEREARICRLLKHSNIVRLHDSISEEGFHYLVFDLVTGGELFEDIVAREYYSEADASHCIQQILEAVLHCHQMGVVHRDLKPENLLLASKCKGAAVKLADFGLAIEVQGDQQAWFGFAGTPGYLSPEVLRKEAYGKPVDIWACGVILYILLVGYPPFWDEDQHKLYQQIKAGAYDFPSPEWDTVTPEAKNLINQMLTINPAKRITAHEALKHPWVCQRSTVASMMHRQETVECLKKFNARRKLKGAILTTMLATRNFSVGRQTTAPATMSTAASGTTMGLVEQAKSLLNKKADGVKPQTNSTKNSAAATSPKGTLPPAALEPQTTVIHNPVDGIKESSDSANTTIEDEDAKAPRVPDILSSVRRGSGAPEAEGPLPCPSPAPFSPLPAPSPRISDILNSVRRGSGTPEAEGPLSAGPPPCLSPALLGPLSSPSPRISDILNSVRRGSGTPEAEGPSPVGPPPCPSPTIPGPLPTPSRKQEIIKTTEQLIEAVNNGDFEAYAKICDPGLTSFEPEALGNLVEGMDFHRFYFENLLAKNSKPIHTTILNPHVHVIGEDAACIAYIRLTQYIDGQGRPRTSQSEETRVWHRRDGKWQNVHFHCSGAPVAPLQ
Sequence of Atypical kinase COQ8B, mitochondrial (Homo sapiens) (Q96D53 whole entry): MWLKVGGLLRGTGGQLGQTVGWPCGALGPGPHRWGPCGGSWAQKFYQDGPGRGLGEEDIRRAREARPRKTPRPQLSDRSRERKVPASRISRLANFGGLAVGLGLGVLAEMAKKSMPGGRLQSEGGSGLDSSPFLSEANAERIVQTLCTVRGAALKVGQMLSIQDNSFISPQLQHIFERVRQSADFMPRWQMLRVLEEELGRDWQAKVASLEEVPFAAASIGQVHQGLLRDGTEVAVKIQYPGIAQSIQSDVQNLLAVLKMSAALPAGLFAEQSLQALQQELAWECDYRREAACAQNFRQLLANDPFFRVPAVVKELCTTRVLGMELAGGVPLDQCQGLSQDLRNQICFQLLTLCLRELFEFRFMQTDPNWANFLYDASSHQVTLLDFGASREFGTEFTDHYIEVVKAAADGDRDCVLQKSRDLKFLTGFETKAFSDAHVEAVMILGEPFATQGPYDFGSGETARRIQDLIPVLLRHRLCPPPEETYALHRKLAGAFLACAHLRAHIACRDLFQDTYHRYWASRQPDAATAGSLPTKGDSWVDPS

Row | SMILES | % Inhibition of Control Agonist Response (Mean n=2) [1] | % of Control Agonist Response (Mean n=2) [1] | residual activity [2] | residual activity [3] | residual activity [4] | residual activity [5] | residual activity [6] | residual activity [7] | residual activity [8] | residual activity [9] | residual activity [10] | residual activity [11] | residual activity [12] | residual activity [13] | residual activity [14] | residual activity [15] | residual activity [16] | residual activity [17] | residual activity [18] | residual activity [19] | further results
1 | O=C(N1CCS(=O)(=O)CC1)N1C[C@H](c2ccc(OC(F)(F)F)cc2)C[C@H](c2nc(C3CC3)no2)C1 [BAY-386] | 18.8% | 11.5% | 100% | 100% | 73% | 100% | 100% | 100% | 100% | 100% | 98% | 100% | 100% | 100% | 100% | 100% | 100% | 100% | 100% | 100% | residual activity [20]: 85%; residual activity [21]: 75%; residual activity [22]: 100%; residual activity [23]: 100%; residual activity [24]: 100%; residual activity [25]: 85%; residual activity [26]: 100%; residual activity [27]: 100%; residual activity [28]: 98%; residual activity [29]: 94%; residual activity [30]: 86%; residual activity [31]: 77%; residual activity [32]: 99%; residual activity [33]: 100%; residual activity [34]: 100%; residual activity [35]: 97%; inhibition [36]: 5.09%; inhibition [37]: -2.64%
2 | Cc1noc([C@H]2C[C@@H](c3ccc(C(F)(F)F)cc3)CN(C(=O)N3CCS(=O)(=O)C3)C2)n1 [BAY-448] | 4.3% | -0.4% | 100% | 91% | 100% | 100% | 100% | 100% | 100% | 100% | 100% | 90% | 74% | 100% | 100% | 100% | 89% | 91% | 100% | 28% | residual activity [20]: 100%; residual activity [21]: 100%; residual activity [22]: 100%; residual activity [23]: 100%; residual activity [24]: 100%; residual activity [25]: 100%; residual activity [26]: 100%; residual activity [27]: 97%; residual activity [28]: 100%; residual activity [29]: 100%; residual activity [30]: 87%; residual activity [31]: 78%; residual activity [32]: 100%; residual activity [33]: 86%; residual activity [34]: 100%; residual activity [35]: 96%; inhibition [36]: -2.97%; inhibition [37]: 28.4%
